According to article PMC7687371, “Quantitative in Vitro to in Vivo Extrapolation (QIVIVE) for Predicting Reduced Anogenital Distance Produced by Anti-Androgenic Pesticides in a Rodent Model for Male Reproductive Disorders” (Environmental Health Perspectives, 2020):
Read-outs that look alike come from different tables or passages of the source. Marks after values point to notes of the source that are not given here.

Assays:
androgen receptor (AR) = target: androgen receptor (AR); parameters: method as in Vinggaard et al. (2008); settings: ref Vinggaard et al. (2008); read-out: AR antagonism (IC50); cited from earlier work
[1] = parameters: method as in U.S. EPA 2012; settings: EPI Suite, experimental preferred over modeled; ref U.S. EPA 2012; cited from earlier work
[2] = parameters: method as in Sierra-Santoyo et al. (2008); settings: conversion of parent compound into active metabolite; ref Sierra-Santoyo et al. (2008); cited from earlier work
[3] = PBK model first-order kinetic parameters fitted to in vivo ADME data; parameters: species or system rat; settings: PBK model parameter; for Metabolism rate in liver, Total (L/h) KMetab: metabolic clearance
[4] = Fetal chemical exposure analysis (LC-QTOF) at GD21; assay type: in vivo, rat; settings: for Measured concentration in male fetuses: Sprague-Dawley, rat, in vivo, 40 mg/kg/day
Protocol: Dams were decapitated under CO2 /oxygen anesthesia at GD21 and fetuses collected by cesarean section. Prior to decapitation of the fetuses, their BWs and AGDs were recorded. Blood from the dams was collected in heparinized vacutainer tubes, centrifuged at 125×g for 10 min at 4°C to prepare plasma, and, together with the amniotic fluid, frozen directly. Pooled trunk blood from all female and male fetuses of the same litter (female and male blood separately) was collected into heparin-treated capillary tubes approximately 90 min after dosing and the plasma was prepared and stored at −80°C until analysis for pesticides and selected metabolites by liquid chromatography quadrupole time-of-flight mass spectroscopy (LC-QTOF). Details about the LC-QTOF analyses are provided in “Method S1” in Supplemental Material. Amniotic fluid was collected from fetuses by pipetting, pooled within each litter, snap frozen in liquid nitrogen, and subsequently stored at −80 °C .
Method S1. Chemical analysis of pesticide levels
Acetonitrile, methanol, formic acid and 25% ammonium hydroxide, all of LC-MS grade and ethyl acetate were obtained from Sigma Aldrich, Schneldorf, Germany. Isolute bulk C-18 sorbent was obtained from Biotage, Sweden and was washed with acetonitrile and ethyl acetate and dried prior to use. Water was purified on a Milli Q system, Millipore Corporation, US.
Pesticide standards were purchased from Dr. Ehrenstorfer (Augsburg, Germany), LGC-standards (Teddington, Middlesex, UK) and Sigma Aldrich (St. Louis, MO, USA). Acetonitrile used as solvents for the LC-QTOF was LiChrosolv Hypergrade. An ESI-L low concentration tuning mix from Agilent (Santa Clara, CA, USA) was used for tuning of the TOF. A reference solution was prepared containing Purine and HP0921 from Agilent (Santa Clara, CA, USA).
Stock solutions of the pesticides were prepared at 1 mg/ml in acetonitrile, methanol or toluene.
Standard mixtures containing the test compounds were prepared at a concentration of 10 µg/ml acetonitrile and used for preparation of calibration solutions. Isomers eluting very close to each other were avoided in these mixtures. […]
added 200 µl of ice-cold acetonitrile in Eppendorf tubes. Internal standard was added in the form of 10 µl TPP (5 µg/ml) and the extraction was performed by whirl mixing. The tube was then stored on ice for 5 min and then centrifuged at 10,000 x g for 10 min at 4 °C (Ole Dich Instrument, Denmark). An aliquot of the supernatant was transferred to filter vials (0.45 µm) and analysed by […]
Quality control samples were included in each analytical run. These were prepared using the same procedure as for the samples, though using amniotic fluid from untreated control Wistar rats extracted with acetonitrile containing three different levels of the relevant pesticide standards. The resulting spike levels were 0.04, 0.013 and 0.13 µg/ml. […]
fluid or plasma from Sprague Dawley rats was transferred to an Eppendorf vial and added 150 µl of acetonitrile. 50 mg of isolute C-18 sorbent was added to the tube, which was shaken for 5 min, […]
cooled to 4 °C and centrifuged at 10,000 x g for 10 min at 4 °C (Ole Dich Instrument makers, Denmark). 20 µl of the supernatant was transferred to an HPLC vial and mixed with 80 µl of 5%- 75% acetonitrile (this percentage was analyte dependent) prior to analysis by LC-MS.LC -QTOF […]
Pesticide screening was carried out using a liquid chromatography-electrospray ionization-quadrupole-time of flight-mass spectrometer.
The LC system was connected to a Bruker Daltonics, maXis qTOF mass spectrometer equipped with an electrospray ion source operated in positive ion mode (Bruker Daltonics, Bremen, Germany). The ion source settings were: nebulizer pressure 2 bars, drying gas flow 8 l/min, dry gas temperature 200 °C, capillary voltage 2500 V. The scan range was from 80 to 700 m/z with an acquisition rate of 2 Hz. Sodium formate dissolved in 50% 2-propanol was introduced in the ion […]

[5] = ref Wetmore et al. (2012); cited from earlier work
Wistar rats [6] = settings: rat, in vivo, cited from earlier work
NCI-H295R cells [7] = assay: H295R steroidogenesis assay; assay type: cell-based, human; settings: for Effect on androgen (steroid) synthesis, in words: H295R steroidogenesis assay
Protocol: To capture effects on steroid hormone synthesis (testosterone and androstendione), we tested all 12 pesticides in the H295R assay with the human adrenocortical carcinoma cell line NCI-H295R (American Type Culture Collection no. CRL-2,128, LGC Standards), as previously described ([Hecker et al. 2011]; [Rosenmai et al. 2013]). In brief, cells were cultured in DMEM/F-12 +glutamine medium with HEPES buffer (Invitrogen) containing 1% insulin-transferrin-sodium selenite plus Premix (VWR) and 2.5% Nu-Serum (BD Bioscience) at 37°C in a 5% CO2 atmosphere. The day before exposure, cells were seeded 300,000 per well in clear 24-well plates (VWR Corning). Cells were exposed for 48 h to control (Forskolin: 1μM , 10μM (Sigma-Aldrich); and Prochloraz: 0.3μM , 3μM (VWR-Bie and Berntsen) or test compounds. The vehicle (DMSO) concentration was kept constant in all wells (0.1%). After 48 h, the exposure culture medium was removed and stored at –80°C until the levels of 10 steroid hormones (testosterone, androstenedione, aldosterone, corticosterone, cortisol, dehydroepiandrosterone, 17α-hydroxyprogesterone , progesterone, estrone, and 17β-estradiol ) were quantified using the high-performance liquid chromatography–tandem mass spectrometry method described elsewhere ([Mortensen and Pedersen 2007]). Minor modifications were made to accommodate a smaller sample size and to include more hormones. The liquid chromatography system (Agilent 1100) was equipped with an Atlantis C18 column ( 2.1×150mm , 3μm ) (Waters Corp.) maintained at 40°C. The sample injection volume was 50μL . […] The mass spectrometer was a Quattro Ultima triple quadrupole instrument (Waters Corp.). […] Each pesticide was tested in 2-fold serial dilutions at concentrations between 0.8 and 50μM in three independent experiments, and hormone levels were normalized to the solvent controls containing 0.1% DMSO. Cell viability was evaluated by using the 3-(4,5-dimethylthiazol-2-yl)-2,5- diphenyltetrazolium bromide (MTT) assay (Sigma) as previously described ([Hecker et al. 2011]; [Rosenmai et al. 2013]). Fluorescence was measured (excitation 560 nm , emission 590 nm ) using a Wallac Victor2 1420 multilabel counter (PerkinElmer).

Wistar rats [8] = settings: male, rat, in vivo, 40 mg/kg/day
Protocol: In total, four in vivo exposure studies were conducted with pesticide exposures to pregnant rats during gestation and lactation to the selected compound (Table 2). […] For one selected dose of each compound, the internal body concentrations in dams and fetuses were determined by cesarean section at GD21. Due to the study outcomes from the third study, we conducted a fourth follow-up study on dimethomorph (Study 4).
Pup weights and AGD were measured after birth at PD1 using a stereomicroscope with a micrometer eyepiece and were determined as the distance between the genital papilla and the anus. To discriminate between an anti-androgenic effect and stunted growth, the AGD index (AGDI) was calculated by dividing AGD by the cube root of the BW (as described by [Hass et al. 2007]). The estimation of AGDI effect doses by regression modeling required a standardized AGDI scale. Therefore, we normalized the AGDI values in relation to the dynamic range spanned by the mean AGDI of the male and the female controls as (38) normalized AGDI=mean(AGDI of male controls)−AGDI(exposed animal)/mean(AGDI of male controls)−mean(AGDI of female controls).

NCI-H295R cells [9] = assay: Cell viability (MTT) in the H295R assay; assay type: cell-based, human
Protocol: To capture effects on steroid hormone synthesis (testosterone and androstendione), we tested all 12 pesticides in the H295R assay with the human adrenocortical carcinoma cell line NCI-H295R (American Type Culture Collection no. CRL-2,128, LGC Standards), as previously described ([Hecker et al. 2011]; [Rosenmai et al. 2013]). In brief, cells were cultured in DMEM/F-12 +glutamine medium with HEPES buffer (Invitrogen) containing 1% insulin-transferrin-sodium selenite plus Premix (VWR) and 2.5% Nu-Serum (BD Bioscience) at 37°C in a 5% CO2 atmosphere. The day before exposure, cells were seeded 300,000 per well in clear 24-well plates (VWR Corning). Cells were exposed for 48 h to control (Forskolin: 1μM , 10μM (Sigma-Aldrich); and Prochloraz: 0.3μM , 3μM (VWR-Bie and Berntsen) or test compounds. The vehicle (DMSO) concentration was kept constant in all wells (0.1%). After 48 h, the exposure culture medium was removed and stored at –80°C until the levels of 10 steroid hormones (testosterone, androstenedione, aldosterone, corticosterone, cortisol, dehydroepiandrosterone, 17α-hydroxyprogesterone , progesterone, estrone, and 17β-estradiol ) were quantified using the high-performance liquid chromatography–tandem mass spectrometry method described elsewhere ([Mortensen and Pedersen 2007]). Minor modifications were made to accommodate a smaller sample size and to include more hormones. […]

pregnant dams and pups = settings: ref EFSA's Draft Assessment Reports (DARs); cited from earlier work

## C=CC(C)(OC(=O)Nc1cc(Cl)cc(Cl)c1)C(=O)O (centres unmarked) [M1, 2-[[(3,5-dichlorophenyl)-carbamoyl]oxy]-2-methyl-3-butenoic acid]
Androgen receptor (AR)
  IC50: 2000 nM
[1]
  log Kow: 3.52
[2]
  Metabolism rate in liver, Metabolite (L/h): 2.8^h L/h
[3]
  Urine excretion rate from kidney (L/h) KUrine: 0.2 L/h
[4]
  Measured concentration in male fetuses: 18.0 µM

## C=CC1(C)OC(=O)N(c2cc(Cl)cc(Cl)c2)C1=O (centres unmarked) [Vinclozolin, vinclozolin]
[5]
  Unbound plasma fraction (%): 59^g %
[1]
  log Kow: 3.10
[3]
  Portal GI absorption rate into liver (L/h) KAS: 0.5 L/h
  Urine excretion rate from kidney (L/h) KUrine: 0.05 L/h
  Metabolism rate in liver, Total (L/h) KMetab: 1.4 L/h
Wistar rats [6]; 5 mg/kg
  AGDI (normalised to male and female controls) mean: 0.96
Wistar rats [6]; 10 mg/kg
  AGDI (normalised to male and female controls) mean: 0.80
Wistar rats [6]; 20 mg/kg
  AGDI (normalised to male and female controls) mean: 0.83
Wistar rats [6]; 24.5 mg/kg
  AGDI (normalised to male and female controls) mean: 0.93
Wistar rats [6]; 40 mg/kg
  AGDI (normalised to male and female controls) mean: 0.72
Wistar rats [6]; 80 mg/kg
  AGDI (normalised to male and female controls) mean: 0.46
Wistar rats [6]; 95.9 mg/kg
  AGDI (normalised to male and female controls) mean: 0.42
Wistar rats [6]; 160 mg/kg
  AGDI (normalised to male and female controls) mean: 0.25
Wistar rats [6]
  AGDI ED10: 9.2 mg/kg BW
  AGDI ED50: 78.7 mg/kg BW
NCI-H295R cells [7]
  Effect on androgen (steroid) synthesis, in words: negligible activity in terms of suppressing steroid synthesis
Wistar rats [8]
  AGDI reduction (%): 26^d %
[4]; fetal plasma GD21, mean litter value, dams dosed 40 mg/kg BW per day parent compound (Study 1)
  Measured concentration in male fetuses (μM): <0.15 ^e μM

## C=CC(C)(O)C(=O)Nc1cc(Cl)cc(Cl)c1 (centres unmarked) [M2, 3′,5′-dichloro-2-hydroxy-2-methylbut-3-enanilide]
Androgen receptor (AR)
  IC50: 200 nM
[1]
  log Kow: 2.95
[2]
  Metabolism rate in liver, Metabolite (L/h): 0.9^h L/h
[3]
  Urine excretion rate from kidney (L/h) KUrine: 0.2 L/h
[4]
  Measured concentration in male fetuses: 3.4 µM

## Fc1ccc(Oc2ccnc3cc(Cl)cc(Cl)c23)cc1 [Quinoxyfen, quinoxyphen]
[5]
  Unbound plasma fraction (%): 5.0^g %
[1]
  log Kow: 4.66
[3]
  Biliary excretion rate (L/h) KBiliary: 1.4 L/h
  Fecal excretion rate from gut (L/h) KFeces: 2 L/h
  Portal GI absorption rate into liver (L/h) KAS: 1 L/h
  Urine excretion rate from kidney (L/h) KUrine: 0.01 L/h
  Metabolism rate in liver, Total (L/h) KMetab: 0.3 L/h
NCI-H295R cells [9]
  Cytotoxicity in H295R assay, concentrations: cytotoxicity was observed at the same concentrations
NCI-H295R cells [7]
  Effect on androgen (steroid) synthesis, in words: inhibited testosterone synthesis
NCI-H295R cells [7]; Homo sapiens, NCI-H295R, read-out: Testosterone inhibition (IC20 µM)
  IC20: 1000 nM
NCI-H295R cells [7]; multiple contrast tests
  Androstendione, LOEC: 1.6 µM
  Corticosterone, LOEC: 3.1 µM
  DHEA, LOEC: 1.6 µM
  Estradiol, LOEC: 25 µM
  Progesterone, LOEC: 50 µM
  Testosterone, lowest observed effect concentration (LOEC): 1.6 µM
Pregnant dams and pups
  Critical toxicity: Reduced pup BW during lactation, liver hypertrophy
  LOAEL (mg/kg bw): 100 mg/kg bw
  NOAEL (mg/kg bw): 25 mg/kg bw
